Assay results from patent US20150283152A1, “Levonorgestrel-Only-Composition For Optimized Oral Contraception With Defined Levonorgestrel Content, Dosage Regimen And Pharmaceutical Preparation” (NAARI AG, priority 2012, published 2015).

Columns and labels:
[1] = test system: immature male Wistar-rats; test: Weight of gonads in immature male rats (antigonadotrophic effect); format: in vivo, rat; details: final control 873.5 ± 62.5, p < 0.05
From the text: The influence of levonorgestrel on the secretion of gonadotrophins from the pituitary can be estimated by recording the dose-effect relationships in reducing the weight of the gonads of immature male rats. [table]

New Zealand-rabbits = test: Pre-ovulatory repeated oral levonorgestrel, rate of fertilized eggs in rabbits (ovulation induced by PMSG/hCG); format: in vivo, rabbit; details: for % fertilized (cleaved) eggs: control 90.6
From the text: On the last day of LNG-administration, the ovulation was “forced” by intravenous (i.v.) injection of human chorionic gonadotropin (hCG). […] [table]

[2] = Martinez F et al. 2012; cited from earlier work
Luteinizing Hormone (LH) = test: Serum levels of Luteinizing Hormone in male castrated rats (radioimmunoassay); format: in vivo, rat; details: gonadectomized control 127.0 ± 11.0, p < 0.05
[3] = test system: female paired Wistar-rats; test: Post-ovulatory subcutaneous levonorgestrel, fertility of female paired rats; format: in vivo, rat
Procedure: Whereas 20 mg/kg bodyweight (b.w.). […] [table]

women = details: without estrogen; cited from earlier work
[4] = total dosage 0.35 mg/animal p.o. over 3 days
[5] = total dosage 1.75 mg/animal p.o. over 3 days
[6] = s.c. days 1-4 p.i., total dose 0.2 mg/animal/4 days
[7] = s.c. days 1-4 p.i., total dose 2.0 mg/animal/4 days
[8] = s.c. once Day 1 p.i., total dose 4.0 mg/animal

C#C[C@]1(O)CC[C@H]2[C@@H]3CCC4=CC(=O)CC[C@@H]4[C@H]3CC[C@@]21CC [levonorgestrel]
Gonadal weight/mg Mean ± (S.E.M.) ([1]; total dose 0.14 mg/animal over 14 d s.c.): 579.7 ± 44.7 mg | Gonadal weight/mg Mean ± (S.E.M.) ([1]; total dose 0.42 mg/animal over 14 d s.c.): 385.7 ± 74.3 mg | Gonadal weight/mg Mean ± (S.E.M.) ([1]; total dose 1.40 mg/animal over 14 d s.c.): 180.8 ± 105.5 mg | Total no. of eggs vs. total no. of fertilized (cleaved) eggs (New Zealand-rabbits; [4]): 92/78 | % fertilized (cleaved) eggs (New Zealand-rabbits; [4]): 84.8% | Total no. of eggs vs. total no. of fertilized (cleaved) eggs (New Zealand-rabbits; [5]): 81/49 | % fertilized (cleaved) eggs (New Zealand-rabbits; [5]): 60.5% | % fertilized (cleaved) eggs (New Zealand-rabbits; total dosage 5.25 mg/animal p.o. over 3 days): 54.5% | risk of venous thromboembolism (VTE) [2]: currently the safest progestin | Luteinizing Hormone ng/mL serum (Luteinizing Hormone (LH); total dose 0.14 mg/animal/14 d s.c.): 68.4 ± 15.4 ng/mL serum | Luteinizing Hormone ng/mL serum (Luteinizing Hormone (LH); total dose 1.40 mg/animal/14 d s.c.): 2.2 ± 0.3 ng/mL serum | No. of treated animals vs. no. of intact pregnancies [3, 6]: 10/9 | Pregnancy inhibition (%) [3, 6]: 10% | No. of treated animals vs. no. of intact pregnancies [3, 7]: 10/0 | Pregnancy inhibition (%) [3, 7]: 100% | No. of treated animals vs. no. of intact pregnancies [3, 8]: 12/12 | Pregnancy inhibition (%) [3, 8]: 0% | daily dosage leading to non-acceptable bleeding irregularities (women): over 0.125 mg
